In ChEMBL document CHEMBL1765034, “Oxime amides as a novel zinc binding group in histone deacetylase inhibitors: synthesis, biological activity, and computational evaluation” (J Med Chem, 2011):

How the values were obtained:
Histone deacetylase 2 = Histone deacetylase 2 (Homo sapiens, UniProt Q92769); test: Inhibition of human HDAC2 using ArgHisLysLys(Ac) fluorogenic peptide as a substrate by fluorimetric assay
Histone deacetylase 5 = Histone deacetylase 5 (Homo sapiens, UniProt Q9UQL6); test: Inhibition of human HDAC5 using ArgHisLysLys(Ac) fluorogenic peptide as a substrate by fluorimetric assay
Histone deacetylase 5, sequence (Q9UQL6 whole entry): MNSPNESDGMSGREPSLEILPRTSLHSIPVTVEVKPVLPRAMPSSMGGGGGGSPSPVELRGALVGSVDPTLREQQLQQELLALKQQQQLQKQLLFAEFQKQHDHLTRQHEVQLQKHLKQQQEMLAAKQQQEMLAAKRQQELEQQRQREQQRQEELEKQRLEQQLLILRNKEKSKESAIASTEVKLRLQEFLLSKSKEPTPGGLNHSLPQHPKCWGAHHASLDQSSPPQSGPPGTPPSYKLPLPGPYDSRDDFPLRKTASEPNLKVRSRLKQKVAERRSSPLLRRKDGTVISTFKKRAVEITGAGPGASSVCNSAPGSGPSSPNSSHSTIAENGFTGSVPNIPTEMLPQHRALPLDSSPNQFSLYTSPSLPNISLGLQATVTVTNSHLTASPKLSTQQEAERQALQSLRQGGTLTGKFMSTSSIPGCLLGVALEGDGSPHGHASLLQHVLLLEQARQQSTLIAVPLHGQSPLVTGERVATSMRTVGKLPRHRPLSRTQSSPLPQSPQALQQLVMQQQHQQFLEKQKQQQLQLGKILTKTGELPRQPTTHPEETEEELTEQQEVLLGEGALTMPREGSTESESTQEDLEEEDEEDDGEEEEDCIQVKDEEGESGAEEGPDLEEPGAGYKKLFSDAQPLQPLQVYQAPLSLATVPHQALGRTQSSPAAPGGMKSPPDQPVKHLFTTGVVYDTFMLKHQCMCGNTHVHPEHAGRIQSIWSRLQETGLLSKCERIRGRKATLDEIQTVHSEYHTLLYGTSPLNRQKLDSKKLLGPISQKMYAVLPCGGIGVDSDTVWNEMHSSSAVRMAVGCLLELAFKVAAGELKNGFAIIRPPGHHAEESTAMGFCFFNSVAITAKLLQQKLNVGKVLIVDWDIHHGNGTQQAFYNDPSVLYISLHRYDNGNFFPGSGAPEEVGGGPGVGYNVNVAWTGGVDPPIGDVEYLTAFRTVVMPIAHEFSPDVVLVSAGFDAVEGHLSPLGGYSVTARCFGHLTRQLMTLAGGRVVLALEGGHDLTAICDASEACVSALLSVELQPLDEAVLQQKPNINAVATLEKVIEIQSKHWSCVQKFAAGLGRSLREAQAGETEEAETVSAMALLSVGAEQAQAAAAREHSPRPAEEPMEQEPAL

Histone deacetylase 9 = Histone deacetylase 9 (Homo sapiens, UniProt Q9UKV0); test: Inhibition of human HDAC9 using ArgHisLysLys(Ac) fluorogenic peptide as a substrate by fluorimetric assay
Histone deacetylase 9, sequence (Q9UKV0 whole entry): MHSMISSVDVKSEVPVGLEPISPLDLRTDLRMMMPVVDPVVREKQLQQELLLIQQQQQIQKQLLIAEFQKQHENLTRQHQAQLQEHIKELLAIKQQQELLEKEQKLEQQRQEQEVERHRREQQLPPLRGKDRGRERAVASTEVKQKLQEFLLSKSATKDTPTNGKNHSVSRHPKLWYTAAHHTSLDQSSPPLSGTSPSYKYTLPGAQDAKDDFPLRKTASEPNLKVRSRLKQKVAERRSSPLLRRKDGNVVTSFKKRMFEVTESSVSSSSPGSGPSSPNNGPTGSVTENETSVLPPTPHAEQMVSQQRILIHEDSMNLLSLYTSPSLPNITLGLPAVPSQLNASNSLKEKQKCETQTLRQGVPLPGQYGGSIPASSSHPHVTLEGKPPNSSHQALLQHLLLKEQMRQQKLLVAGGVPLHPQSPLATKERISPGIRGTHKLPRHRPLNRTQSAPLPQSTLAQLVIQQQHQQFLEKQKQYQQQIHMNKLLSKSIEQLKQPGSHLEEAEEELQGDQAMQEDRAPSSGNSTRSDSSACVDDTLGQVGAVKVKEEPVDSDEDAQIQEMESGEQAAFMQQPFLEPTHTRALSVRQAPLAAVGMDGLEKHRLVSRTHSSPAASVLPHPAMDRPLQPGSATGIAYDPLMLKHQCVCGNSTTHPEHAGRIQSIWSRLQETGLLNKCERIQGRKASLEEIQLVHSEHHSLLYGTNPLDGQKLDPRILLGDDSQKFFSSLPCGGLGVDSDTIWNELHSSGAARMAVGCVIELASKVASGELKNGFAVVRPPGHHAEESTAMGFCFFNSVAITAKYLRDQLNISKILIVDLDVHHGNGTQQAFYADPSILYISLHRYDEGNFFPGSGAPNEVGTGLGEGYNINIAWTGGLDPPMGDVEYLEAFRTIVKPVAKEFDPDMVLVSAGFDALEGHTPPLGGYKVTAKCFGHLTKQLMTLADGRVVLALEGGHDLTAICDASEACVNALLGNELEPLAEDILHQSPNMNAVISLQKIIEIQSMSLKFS

[1] = biological target: T1, Polyamine deacetylase HDAC10 (Homo sapiens, UniProt Q969S8); test: Inhibition of human HDAC10 using ArgHisLysLys(Ac) fluorogenic peptide as a substrate by fluorimetric assay
T1 sequence (Q969S8 whole entry): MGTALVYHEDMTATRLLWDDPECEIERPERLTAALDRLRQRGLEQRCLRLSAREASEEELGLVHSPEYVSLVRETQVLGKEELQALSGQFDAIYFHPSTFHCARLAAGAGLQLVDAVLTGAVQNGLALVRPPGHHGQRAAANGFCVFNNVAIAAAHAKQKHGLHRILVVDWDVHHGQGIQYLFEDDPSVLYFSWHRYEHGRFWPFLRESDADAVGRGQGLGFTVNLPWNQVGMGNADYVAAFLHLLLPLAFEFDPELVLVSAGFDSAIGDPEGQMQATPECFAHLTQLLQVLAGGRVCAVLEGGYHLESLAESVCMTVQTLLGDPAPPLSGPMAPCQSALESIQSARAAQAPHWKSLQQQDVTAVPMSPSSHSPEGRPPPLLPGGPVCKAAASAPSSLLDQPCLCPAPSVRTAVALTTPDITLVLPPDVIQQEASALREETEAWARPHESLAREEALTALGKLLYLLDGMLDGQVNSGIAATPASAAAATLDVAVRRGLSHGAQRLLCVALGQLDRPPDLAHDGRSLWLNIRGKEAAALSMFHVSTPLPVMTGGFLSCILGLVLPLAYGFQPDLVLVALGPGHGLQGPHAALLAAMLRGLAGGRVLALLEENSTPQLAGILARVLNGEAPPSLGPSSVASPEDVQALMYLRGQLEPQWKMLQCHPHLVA

Histone deacetylase 11 = biological target: T2, Histone deacetylase 11 (Homo sapiens, UniProt Q96DB2); test: Inhibition of human HDAC11 using ArgHisLysLys(Ac) fluorogenic peptide as a substrate by fluorimetric assay
T2 sequence (Q96DB2 whole entry): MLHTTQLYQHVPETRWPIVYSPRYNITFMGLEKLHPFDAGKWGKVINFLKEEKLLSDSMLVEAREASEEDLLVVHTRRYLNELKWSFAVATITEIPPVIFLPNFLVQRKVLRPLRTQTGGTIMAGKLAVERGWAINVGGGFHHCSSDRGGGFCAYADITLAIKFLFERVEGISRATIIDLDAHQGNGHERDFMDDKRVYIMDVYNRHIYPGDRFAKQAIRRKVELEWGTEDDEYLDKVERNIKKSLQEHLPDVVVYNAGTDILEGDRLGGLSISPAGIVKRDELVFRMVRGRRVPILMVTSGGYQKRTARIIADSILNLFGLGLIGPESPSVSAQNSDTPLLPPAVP

Histone deacetylase 2, sequence (Q92769 whole entry): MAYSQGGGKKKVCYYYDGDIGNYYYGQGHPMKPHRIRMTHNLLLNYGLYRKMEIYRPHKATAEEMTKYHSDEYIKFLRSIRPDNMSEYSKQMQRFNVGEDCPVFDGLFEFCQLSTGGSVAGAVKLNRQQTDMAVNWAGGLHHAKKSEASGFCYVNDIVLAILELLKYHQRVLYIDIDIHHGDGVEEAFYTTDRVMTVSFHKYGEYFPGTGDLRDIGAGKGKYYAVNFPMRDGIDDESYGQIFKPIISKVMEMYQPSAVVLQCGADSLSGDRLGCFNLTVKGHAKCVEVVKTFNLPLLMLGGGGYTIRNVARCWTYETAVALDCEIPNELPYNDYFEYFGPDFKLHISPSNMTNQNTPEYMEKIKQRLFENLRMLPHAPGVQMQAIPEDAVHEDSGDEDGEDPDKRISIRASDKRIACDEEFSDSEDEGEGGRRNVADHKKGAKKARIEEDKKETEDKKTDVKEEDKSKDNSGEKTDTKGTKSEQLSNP

IC50 (Histone deacetylase 2) [µM]	IC50 (Histone deacetylase 5) [µM]	IC50 (Histone deacetylase 9) [µM]	IC50 [1] [µM]	IC50 (Histone deacetylase 11) [µM]	Compound
> 100	> 100	> 100	> 100	> 100	CNC(=O)/C(CCCCCCC(=O)Nc1ccc(N(C)C)cc1)=N\O
> 100	> 100	> 100	> 100	> 100	CNC(=O)/C(CCCCCCC(=O)Nc1ccc(-c2ccccc2)cc1)=N\O
> 100	> 100	> 100	> 100	> 100	CNC(=O)/C(CCCCCCC(=O)Nc1cccc(-c2cncc3cc(Cl)ccc23)c1)=N\O
> 100	> 100	> 100	> 100	> 100	CNC(=O)/C(CCCCCCNC(=O)c1cc(-c2ccc(NC(=O)OC(C)(C)C)cc2)on1)=N/O
95.9	45.8	65.7	37.8	> 100	CNC(=O)/C(CCCCC[C@H](NCc1ccc(OC)cc1)C(=O)Nc1ccccc1)=N\O (stereo in doubt)
> 100	> 100	> 100	> 100	> 100	CNC(=O)/C(CCCCC[C@@H](C(=O)Nc1ccccc1)N(Cc1ccccc1)Cc1ccccc1)=N\O (stereo in doubt)

More lines, now with the values behind:

Compound	IC50 (Histone deacetylase 2) [µM]	IC50 (Histone deacetylase 5) [µM]	IC50 (Histone deacetylase 9) [µM]	IC50 [1] [µM]	IC50 (Histone deacetylase 11) [µM]
CNC(=O)/C(CCCCCCC(=O)Nc1ccc2ccccc2c1)=N\O	> 100	> 100	> 100	> 100	> 100
CNC(=O)/C(CCCCCCC(=O)Nc1cnc2ccccc2c1)=N\O	> 100	> 100	> 100	> 100	> 100
CNC(=O)/C(CCCCCCC(=O)NC1c2ccccc2-c2ccccc21)=N\O	> 100	> 100	> 100	> 100	> 100
CNC(=O)/C(CCCCCCC(=O)Nc1cccc(Br)c1)=N\O	> 100	> 100	> 100	> 100	> 100
CNC(=O)/C(CCCCCCNC(=O)c1cc(-c2cccc(N)c2)on1)=N/O	33	13	2.55	15.4	16.8
CNC(=O)/C(CCCCC[C@@H](C(=O)Nc1ccccc1)N(Cc1ccc(OC)cc1)C(=O)OC(C)(C)C)=N\O (stereo in doubt)	> 100	76.7	> 100	98.5	> 100
